Laboratory results as given in patent US5344765A, “DNA encoding polypeptides with activity against gram-positive and gram-negative bacteria” (priority 1993, dated 1994).
Square brackets hold non-standard residues; d marks the D form. Ends that are not written are not given here. Peptide text beside a SMILES is read from it. hSer = N[C@@H](CCO)C(=O)O

Assays:
B. megaterium = experiment: halo (inhibition zone) agar assay of bactericidal activity; format: cell-based, Bacillus megaterium; settings: for Relative activity: ratio of the radius of the cleared halo versus that for E. coli D21: B. megaterium, overnight incubation at 25° C.
Protocol: (§1) The assay for antimicrobial activity was performed by pouring 10 ml of agar in TYE media containing about 10^7 viable cells of the test organisms. Wells, 2 mm in diameter, were punched in the agar plates. Aliquots of the modified cecropin-like polypeptides (2-12 ul) were then added to each well. The diameter of the inhibition zones, or haloes, around the wells, were measured after overnight incubation at 25° C.
(§2) The activities of various cecropin-like polypeptides were tested against both Gram-negative and Gram-positive organisms. Anti-microbial activity against the Gram-negative organisms remained unaltered for most of the Gram-negative bacteria (except, i.e., Serratia marcescens) as shown in Table 1. […] To determine a standard of halo formation, the various modified cecropin-like polypeptides were also applied to E. coli D21. Activity shown in Tables 1 and 2 is expressed as the ratio of the radius of the cleared halo for each organism versus that for E. coli D21.
(§3) The cecropin-like polypeptide modified at the carboxy terminus with ehtylenediamine and naturally occurring cecropin A were tested against a variety of organisms. The relative activities of the antimicrobial agents were expressed per nanomole of polypeptide applied to each well (Table 3).

S. faecalis = experiment: as above; format: cell-based, Streptococcus faecalis
Protocol: as §1, §2, §3

B. subtilis = experiment: as above; format: cell-based; settings: Bacillus subtilus; per nanomole of polypeptide applied to well
Protocol: as §1, §2, §3

M. luteus = experiment: as above; format: cell-based; settings: Micrococcus luteus; per nanomole of polypeptide applied to well
Protocol: as §1, §2, §3

Escherichia coli = experiment: halo assay, activity per nanomole; format: cell-based; settings: per nanomole of polypeptide applied to well
Protocol: as §1, §3

Bacillus megaterium = settings: from the literature; cited from earlier work

For `CC[C@H](C)[C@H](NC(=O)CNC(=O)[C@H](CC(=O)O)NC(=O)[C@H](CCCNC(=N)N)NC(=O)[C@@H](NC(=O)[C@H](CC(N)=O)NC(=O)[C@H](CCC(N)=O)NC(=O)CNC(=O)[C@@H](NC(=O)[C@H](CCCCN)NC(=O)[C@H](CCC(=O)O)NC(=O)[C@@H](NC(=O)[C@H](CCCCN)NC(=O)[C@H](CCCCN)NC(=O)[C@H](Cc1ccccc1)NC(=O)[C@H](CC(C)C)NC(=O)[C@H](CCCCN)NC(=O)[C@H](Cc1c[nH]c2ccccc12)NC(=O)[C@@H](N)CCCCN)[C@@H](C)CC)C(C)C)[C@@H](C)CC)C(=O)N[C@H](C(=O)N[C@@H](CCCCN)C(=O)N[C@@H](C)C(=O)NCC(=O)N1CCC[C@H]1C(=O)N[C@@H](C)C(=O)N[C@H](C(=O)N[C@@H](C)C(=O)N[C@H](C(=O)N[C@H](C(=O)NCC(=O)N[C@@H](CCC(N)=O)C(=O)N[C@@H](C)C(=O)N[C@H](C(=O)N[C@@H](CCC(N)=O)C(=O)N[C@H](C(=O)N[C@@H](C)C(=O)N[C@@H](CCCCN)C(=O)N[C@@H](CCO)C(=O)O)[C@@H](C)CC)[C@@H](C)O)C(C)C)C(C)C)C(C)C)[C@@H](C)CC` [CA--HS--COOH] (H-KWKLFKKIEKVGQNIRDGIIKAGPAVAVVGQATQIAK[hSer]-OH), the “Relative activity: ratio of the radius of the cleared halo versus that for E. coli D21” value (from here on “Relative activity: ratio”) (B. megaterium) was 0.5 ± 0.1.
In the case of `CC[C@H](C)[C@H](NC(=O)CNC(=O)[C@H](CC(=O)O)NC(=O)[C@H](CCCNC(=N)N)NC(=O)[C@@H](NC(=O)[C@H](CC(N)=O)NC(=O)[C@H](CCC(N)=O)NC(=O)CNC(=O)[C@@H](NC(=O)[C@H](CCCCN)NC(=O)[C@H](CCC(=O)O)NC(=O)[C@@H](NC(=O)[C@H](CCCCN)NC(=O)[C@H](CCCCN)NC(=O)[C@H](Cc1ccccc1)NC(=O)[C@H](CC(C)C)NC(=O)[C@H](CCCCN)NC(=O)[C@H](Cc1c[nH]c2ccccc12)NC(=O)[C@@H](N)CCCCN)[C@@H](C)CC)C(C)C)[C@@H](C)CC)C(=O)N[C@H](C(=O)N[C@@H](CCCCN)C(=O)N[C@@H](C)C(=O)NCC(=O)N1CCC[C@H]1C(=O)N[C@@H](C)C(=O)N[C@H](C(=O)N[C@@H](C)C(=O)N[C@H](C(=O)N[C@H](C(=O)NCC(=O)N[C@@H](CCC(N)=O)C(=O)N[C@@H](C)C(=O)N[C@H](C(=O)N[C@@H](CCC(N)=O)C(=O)N[C@H](C(=O)N[C@@H](C)C(=O)N[C@@H](CCCCN)C(=O)N[C@@H](CCO)C(N)=O)[C@@H](C)CC)[C@@H](C)O)C(C)C)C(C)C)C(C)C)[C@@H](C)CC` [CA--HS--NH2] (H-KWKLFKKIEKVGQNIRDGIIKAGPAVAVVGQATQIAK[hSer]-NH2), the “Relative activity: ratio” value (B. megaterium) is reported as 0.4 ± 0.2 and the “Relative activity: ratio” value (S. faecalis; S. faecalis, overnight incubation at 25° C.) is reported as 0.
With “KWKLFKKIEKVGQNIRDGIIKAGPAVAVVGQATQIAK [CA--COOH]” the “Relative activity: ratio” value (B. megaterium) was 0.2 ± 0.08.
With “KWKLFKKIEKVGQNIRDGIIKAGPAVAVVGQATQIAK-NH2 [CA--NH2, cecropin A]” the “Activity per Nanomole (radius of the inhibitory ring)” value (B. subtilis) was less than 0.5 millimeters, the “Activity per Nanomole (radius of the inhibitory ring)” value (M. luteus) was 6.1 millimeters and the “Relative activity: ratio” value (B. megaterium) was 0.7 ± 0.05. The “Activity per Nanomole (radius of the inhibitory ring)” value (B. megaterium; Bacillus megaterium, per nanomole of polypeptide applied to well) was 5.1 millimeters, the “Activity per Nanomole (radius of the inhibitory ring)” value (S. faecalis; Streptococcus faecalis, per nanomole of polypeptide applied to well) was less than 0.5 millimeters and the “Activity per Nanomole (radius of the inhibitory ring)” value (Escherichia coli) was 6.1 millimeters. The “Sensitivity of Bacillus megaterium to cecropin” value (shortened to “Sensitivity”) (Bacillus megaterium) was “highly sensitive”.
In the case of “cecropin B (KWKVFKKIEKMGRNIRNGIVKAGPAIAVLGEAKAL; ends and bridges not checked; UniProt P01508 27-61, looked up) [natural antibacterial peptide purified from immune hemolymph]”, the “Sensitivity” value (Bacillus megaterium) is listed as “highly sensitive”.
In the case of cecropin D, the “Sensitivity” value (Bacillus megaterium) is listed as “relatively resistant”.
